Data published in US10717757B2, “Ketolides having antibacterial activity” (BIOPHARMATI SA, priority 2016, dated 2020).
Read-outs that look alike come from different tables or passages of the source.

How the values were obtained:
[1] = tested on: S. pneumoniae ATCC 49619 (CLSI QC strain); assay: Minimum inhibitory concentration (MIC), broth microdilution, QC strain; assay type: cell-based, Streptococcus pneumoniae; details: MIC in duplicates
Procedure: (§1) Protocols for Determining Minimum Inhibitory Concentration (MIC) of Test Compounds Against Streptococcus Pneumoniae Strains
(§2) The test strains are revived from frozen stock on blood agar plates and incubated at 35±2° C. for 18-20 hours in 5% CO2. Colonies are directly suspended from an overnight grown agar culture in CAMHB/saline and optical density adjusted to 0.5 McFarland turbidity standard (1-2×10^8 cfu/mL). Adjusted cultures are further diluted 1:100 using CAMHB such that after inoculation each well finally contains ˜5×10^5 cfu/mL. For broth dilution testing of Streptococcus species, CAMHB is supplemented with 2.5-5% v/v LHB. Colony counts of inoculum suspension is estimated by ten-fold serial dilutions and plating each dilution on agar plate. After incubation, the plates are observed for growth and microbial counts determined.
(§3) Compounds are weighed and dissolved in water/DMSO/other solvent to yield 1 mg/mL stock solution. Serial two-fold dilutions of the test compounds and reference antibiotics are prepared. 50 μL of the diluted drug solutions are dispensed in wells of microtiter trays (96 well).
(§4) To each of the wells of the microtiter tray, 50 μL of the diluted organism are inoculated to obtain a final inoculum density of ˜5×10^5 cfu/mL. Broth control, compound control and organism control wells are set up.
(§5) MIC testing are done in duplicates
(§6) MIC is defined as the lowest concentration of an antimicrobial agent that prevents visible growth of a microorganism in broth dilution susceptibility test.
(§7) After incubation period, growth of organism in the wells are detected by unaided eye facilitated by a viewing device. The amount of growth in the drug-containing wells are compared with the amount of growth in the organism-control wells.

[2] = tested on: S. pneumoniae AUCC479, macrolide & penicillin sensitive; assay: Minimum inhibitory concentration (MIC), broth microdilution, AUCC479; assay type: cell-based, Streptococcus pneumoniae
Procedure: as §1, §2, §3, §4, §5, §6, §7

[3] = tested on: S. pneumoniae AUCC488, macrolide & penicillin resistant; assay: Minimum inhibitory concentration (MIC), broth microdilution, AUCC488; assay type: cell-based, Streptococcus pneumoniae
Procedure: as §1, §2, §3, §4, §5, §6, §7

[4] = tested on: S. pneumoniae AUCC489, macrolide & penicillin resistant; assay: Minimum inhibitory concentration (MIC), broth microdilution, AUCC489; assay type: cell-based, Streptococcus pneumoniae
Procedure: as §1, §2, §3, §4, §5, §6, §7

[5] = tested on: S. pneumoniae AUCC483, macrolide resistant & penicillin sensitive; assay: Minimum inhibitory concentration (MIC), broth microdilution, AUCC483; assay type: cell-based, Streptococcus pneumoniae
Procedure: as §1, §2, §3, §4, §5, §6, §7

CYP3A4 = CYP3A4 (Homo sapiens, UniProt P08684); assay: Cytochrome P4503A4 inhibition assay, human liver microsomes, LC-MS/MS probe substrate method; details: for IC50: human liver microsomes 0.1 mg/mL, 10 min; for CYP3A4 inhibition in comparison with solithromycin and ketoconazole: summary of Table 1
Procedure: Cytochrome P4503A4 Inhibition Assay for Determining IC50
The potential of the compound to inhibit CYP 3A4 was tested by the LC-MS/MS based probe substrate method using human liver microsomes. Midazolam or testosterone, which are metabolized to hydroxymidazolam or hydroxytestosterone by CYP 3A4, were the probe substrates used. […] NADPH was added as the cofactor. […] After incubation for ten minutes, the amount of 1-hydroxymidazolam or 6β-hydroxyltestosterone formed was determined by LC-MS/MS method as a measure of enzyme activity. Percent inhibition of enzyme activity was calculated based on the amount of metabolites (1-hydroxymidazolam or 6β-hydroxyltestosterone) formed for each sample relative to the basal control and plotted in a curve versus the compound concentration to obtain the IC50.

[6] = read-out: IC50 CYP3A4 (midazolam), 5 μM midazolam
[7] = read-out: IC50 CYP3A4 (testosterone), 50 μM testosterone

Chain of CYP3A4 (P08684 whole entry): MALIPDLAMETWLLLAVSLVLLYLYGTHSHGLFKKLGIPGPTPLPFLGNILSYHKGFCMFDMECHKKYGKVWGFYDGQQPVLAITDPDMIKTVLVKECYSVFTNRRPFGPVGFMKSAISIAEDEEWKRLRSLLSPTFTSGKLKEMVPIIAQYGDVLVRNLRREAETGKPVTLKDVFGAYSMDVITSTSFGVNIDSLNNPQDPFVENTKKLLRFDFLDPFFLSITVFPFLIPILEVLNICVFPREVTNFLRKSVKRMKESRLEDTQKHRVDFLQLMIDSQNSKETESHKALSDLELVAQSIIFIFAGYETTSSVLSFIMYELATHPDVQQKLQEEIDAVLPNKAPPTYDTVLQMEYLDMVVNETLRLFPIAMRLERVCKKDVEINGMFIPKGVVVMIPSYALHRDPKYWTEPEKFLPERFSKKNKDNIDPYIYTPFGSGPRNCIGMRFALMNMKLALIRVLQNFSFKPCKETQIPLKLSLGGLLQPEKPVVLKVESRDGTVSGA

Substance: (3aS,4R,7R,9R,10R,11R,13R,15R,15aR)-10-{[(2S,3R,4S,6R)-4-(dimethylamino)-3-hydroxy-6-methyloxan-2-yl]oxy}-1-[2-(dimethylamino)ethyl]-4-ethyl-3a,7,9,11,13,15-hexamethyl-11-{[(2E)-3-(quinolin-3-yl)prop-2-en-1-yl]oxy}-tetradecahydro-1H-oxacyclotetradeca[4,3-d][1,3]oxazole-2,6,8,14-tetrone [Compound 13F, reference compound]
- MIC Strep. Pneumoniae ATCC49619 QC strain [1]: 0.015 to 0.06 µg/mL
- MIC Strep. Pneumoniae AUCC 479 penS, macS [2]: 0.0015 µg/mL
- MIC Strep. Pneumoniae AUCC 488 penR, macR M or iMLS [3]: 0.25 µg/mL
- MIC Strep. Pneumoniae AUCC 489 penR, macR cMLS [4]: 0.12 to 0.25 µg/mL
- MIC Strep. Pneumoniae AUCC 483 penS, macR cMLS [5]: 0.25 to 0.5 µg/mL
- IC50 (CYP3A4; [6]): 1.1 µM

Substance: (3aS,4R,7R,9R,10R,11R,13R,15R,15aR)-10-{[(2S,3R,4S,6R)-4-(dimethylamino)-3-hydroxy-6-methyloxan-2-yl]oxy}-4-ethyl-1-{2-[ethyl(methyl)amino]ethyl}-3a,7,9,11,13,15-hexamethyl-11-{[(2E)-3-(quinolin-3-yl)prop-2-en-1-yl]oxy}-tetradecahydro-1H-oxacyclotetradeca[4,3-d][1,3]oxazole-2,6,8,14-tetrone [Compound 13G]
- MIC Strep. Pneumoniae ATCC49619 QC strain [1]: 0.12 to 0.25 µg/mL
- MIC Strep. Pneumoniae AUCC 479 penS, macS [2]: 0.03 to 0.06 µg/mL
- MIC Strep. Pneumoniae AUCC 488 penR, macR M or iMLS [3]: 0.5 to 1 µg/mL
- MIC Strep. Pneumoniae AUCC 489 penR, macR cMLS [4]: 0.5 to 1 µg/mL
- MIC Strep. Pneumoniae AUCC 483 penS, macR cMLS [5]: 1 to 2 µg/mL
- IC50 (CYP3A4; [6]): 8.8 µM
- CYP3A4 inhibition in comparison with solithromycin and ketoconazole (CYP3A4): lower IC50 inhibition of CYP3A4 inhibition

Substance: (3aS,4R,7R,9R,10R,11R,13R,15R,15aR)-10-{[(2S,3R,4S,6R)-4-(dimethylamino)-3-hydroxy-6-methyloxan-2-yl]oxy}-4-ethyl-1-{[(2R)-1-ethylpyrrolidin-2-yl]methyl}-3a,7,9,11,13,15-hexamethyl-11-{[(2E)-3-(quinolin-3-yl)prop-2-en-1-yl]oxy}-tetradecahydro-1H-oxacyclotetradeca[4,3-d][1,3]oxazole-2,6,8,14-tetrone [Compound 13D]
- MIC Strep. Pneumoniae ATCC49619 QC strain [1]: 0.03 to 0.06 µg/mL
- MIC Strep. Pneumoniae AUCC 479 penS, macS [2]: 0.015 to 0.03 µg/mL
- MIC Strep. Pneumoniae AUCC 488 penR, macR M or iMLS [3]: 0.25 to 0.5 µg/mL
- MIC Strep. Pneumoniae AUCC 489 penR, macR cMLS [4]: 0.12 to 0.25 µg/mL
- MIC Strep. Pneumoniae AUCC 483 penS, macR cMLS [5]: 0.25 to 0.5 µg/mL
- IC50 (CYP3A4; [6]): 2.9 µM
- CYP3A4 inhibition in comparison with solithromycin and ketoconazole (CYP3A4): lower IC50 inhibition of CYP3A4 inhibition

Substance: (3aS,4R,7R,9R,10R,11R,13R,15R,15aR)-10-{[(2S,3R,4S,6R)-4-(dimethylamino)-3-hydroxy-6-methyloxan-2-yl]oxy}-4-ethyl-1-{[(2S)-1-ethylpyrrolidin-2-yl]methyl}-3a,7,9,11,13,15-hexamethyl-11-{[(2E)-3-(quinolin-3-yl)prop-2-en-1-yl]oxy}-tetradecahydro-1H-oxacyclotetradeca[4,3-d][1,3]oxazole-2,6,8,14-tetrone [Compound 13C]
- MIC Strep. Pneumoniae ATCC49619 QC strain [1]: 0.06 to 0.12 µg/mL
- MIC Strep. Pneumoniae AUCC 479 penS, macS [2]: 0.03 µg/mL
- MIC Strep. Pneumoniae AUCC 488 penR, macR M or iMLS [3]: 0.5 µg/mL
- MIC Strep. Pneumoniae AUCC 489 penR, macR cMLS [4]: 0.5 to 1 µg/mL
- MIC Strep. Pneumoniae AUCC 483 penS, macR cMLS [5]: 0.5 to 1 µg/mL
- IC50 (CYP3A4; [6]): 1.8 µM
- CYP3A4 inhibition in comparison with solithromycin and ketoconazole (CYP3A4): lower IC50 inhibition of CYP3A4 inhibition

Substance: (3aS,4R,7R,9R,10R,11R,13R,15R,15aR)-10-{[(2S,3R,4S,6R)-4-(dimethylamino)-3-hydroxy-6-methyloxan-2-yl]oxy}-4-ethyl-3a,7,9,11,13,15-hexamethyl-1-[2-(4-methylpiperazin-1-yl)ethyl]-11-{[(2E)-3-(quinolin-3-yl)prop-2-en-1-yl]oxy}-tetradecahydro-1H-oxacyclotetradeca[4,3-d][1,3]oxazole-2,6,8,14-tetrone [Compound 13K]
- MIC Strep. Pneumoniae ATCC49619 QC strain [1]: 0.06 to 0.12 µg/mL
- MIC Strep. Pneumoniae AUCC 479 penS, macS [2]: 0.03 to 0.06 µg/mL
- MIC Strep. Pneumoniae AUCC 488 penR, macR M or iMLS [3]: 1 µg/mL
- MIC Strep. Pneumoniae AUCC 489 penR, macR cMLS [4]: 0.5 to 1 µg/mL
- MIC Strep. Pneumoniae AUCC 483 penS, macR cMLS [5]: 0.5 to 1 µg/mL
- IC50 (CYP3A4; [6]): 6.5 µM
- CYP3A4 inhibition in comparison with solithromycin and ketoconazole (CYP3A4): lower IC50 inhibition of CYP3A4 inhibition

Substance: (3aS,4R,7R,9R,10R,11R,13R,15R,15aR)-10-{[(2S,3R,4S,6R)-4-(dimethylamino)-3-hydroxy-6-methyloxan-2-yl]oxy}-4-ethyl-3a,7,9,11,13,15-hexamethyl-1-[2-(pyrrolidin-1-yl)ethyl]-11-{[(2E)-3-(quinolin-3-yl)prop-2-en-1-yl]oxy}-tetradecahydro-1H-oxacyclotetradeca[4,3-d][1,3]oxazole-2,6,8,14-tetrone [Compound 13I]
- MIC Strep. Pneumoniae ATCC49619 QC strain [1]: 0.03 to 0.06 µg/mL
- MIC Strep. Pneumoniae AUCC 479 penS, macS [2]: 0.015 to 0.03 µg/mL
- MIC Strep. Pneumoniae AUCC 488 penR, macR M or iMLS [3]: 0.25 to 0.5 µg/mL
- MIC Strep. Pneumoniae AUCC 489 penR, macR cMLS [4]: 0.25 to 1 µg/mL
- MIC Strep. Pneumoniae AUCC 483 penS, macR cMLS [5]: 0.25 to 1 µg/mL
- IC50 (CYP3A4; [6]): 2.1 µM
- CYP3A4 inhibition in comparison with solithromycin and ketoconazole (CYP3A4): lower IC50 inhibition of CYP3A4 inhibition

Substance: (3aS,4R,7R,9R,10R,11R,13R,15R,15aR)-10-{[(2S,3R,4S,6R)-4-(dimethylamino)-3-hydroxy-6-methyloxan-2-yl]oxy}-4-ethyl-3a,7,9,11,13,15-hexamethyl-1-[3-(morpholin-4-yl)propyl]-11-{[(2E)-3-(quinolin-3-yl)prop-2-en-1-yl]oxy}-tetradecahydro-1H-oxacyclotetradeca[4,3-d][1,3]oxazole-2,6,8,14-tetrone [Compound 13J]
- MIC Strep. Pneumoniae ATCC49619 QC strain [1]: 0.06 to 0.12 µg/mL
- MIC Strep. Pneumoniae AUCC 479 penS, macS [2]: 0.03 to 0.06 µg/mL
- MIC Strep. Pneumoniae AUCC 488 penR, macR M or iMLS [3]: 1 µg/mL
- MIC Strep. Pneumoniae AUCC 489 penR, macR cMLS [4]: 1 to 2.0 µg/mL
- MIC Strep. Pneumoniae AUCC 483 penS, macR cMLS [5]: 0.5 to 2 µg/mL
- IC50 (CYP3A4; [6]): 5.9 µM
- CYP3A4 inhibition in comparison with solithromycin and ketoconazole (CYP3A4): lower IC50 inhibition of CYP3A4 inhibition

Substance: (3aS,4R,7R,9R,10R,11R,13R,15R,15aR)-10-{[(2S,3R,4S,6R)-4-(dimethylamino)-3-hydroxy-6-methyloxan-2-yl]oxy}-4-ethyl-3a,7,9,11,13,15-hexamethyl-1-{2-[(2R)-1-methylpyrrolidin-2-yl]ethyl}-11-{[(2E)-3-(quinolin-3-yl)prop-2-en-1-yl]oxy}-tetradecahydro-1H-oxacyclotetradeca[4,3-d][1,3]oxazole-2,6,8,14-tetrone [Compound 13P]
- MIC Strep. Pneumoniae ATCC49619 QC strain [1]: 0.03 to 0.06 µg/mL
- MIC Strep. Pneumoniae AUCC 479 penS, macS [2]: 0.015 to 0.03 µg/mL
- MIC Strep. Pneumoniae AUCC 488 penR, macR M or iMLS [3]: 0.5 to 1 µg/mL
- MIC Strep. Pneumoniae AUCC 489 penR, macR cMLS [4]: 0.12 to 0.25 µg/mL
- MIC Strep. Pneumoniae AUCC 483 penS, macR cMLS [5]: 0.06 to 0.12 µg/mL
- IC50 (CYP3A4; [7]): 6.3 µM
- CYP3A4 inhibition in comparison with solithromycin and ketoconazole (CYP3A4): lower IC50 inhibition of CYP3A4 inhibition

Substance: (3aS,4R,7R,9R,10R,11R,13R,15R,15aR)-10-{[(2S,3R,4S,6R)-4-(dimethylamino)-3-hydroxy-6-methyloxan-2-yl]oxy}-4-ethyl-3a,7,9,11,13,15-hexamethyl-1-{2-[(2S)-1-methylpyrrolidin-2-yl]ethyl}-11-{[(2E)-3-(quinolin-3-yl)prop-2-en-1-yl]oxy}-tetradecahydro-1H-oxacyclotetradeca[4,3-d][1,3]oxazole-2,6,8,14-tetrone [Compound 13Q]
- MIC Strep. Pneumoniae ATCC49619 QC strain [1]: 0.03 to 0.06 µg/mL
- MIC Strep. Pneumoniae AUCC 479 penS, macS [2]: 0.015 to 0.03 µg/mL
- MIC Strep. Pneumoniae AUCC 488 penR, macR M or iMLS [3]: 0.5 to 1 µg/mL
- MIC Strep. Pneumoniae AUCC 489 penR, macR cMLS [4]: 0.12 to 0.25 µg/mL
- MIC Strep. Pneumoniae AUCC 483 penS, macR cMLS [5]: 0.12 to 0.25 µg/mL
- IC50 (CYP3A4; [7]): 4.8 µM
- CYP3A4 inhibition in comparison with solithromycin and ketoconazole (CYP3A4): lower IC50 inhibition of CYP3A4 inhibition
